Data as given in patent US12515027B2, “Subcutaneous biodegradable reservoir device” (Research Triangle Institute, priority 2018, dated 2026).
In brackets after ≈: the same amount, converted by molar mass. Several values for one entry are separate records, joined by “and”; a condition that tells them apart may be missing. Equal values may be shown once. Where a name gives a salt, the structure may show the parent alone.

Assays:
[1] = rhesus monkey, in vivo; cited from earlier work
physchem = conditions: 37 °C, organic solvent or mixture, thermodynamic from solid, Solubility
Experimental: Over a 24-hour period, the solutions were mixed periodically and returned to the water bath. After approximately 72 hours, the solutions were removed from the water bath and appearance recorded for each of the saturated solutions. […] The supernatants were prepared for analysis by UPLC. Triplicate weighed aliquots were prepared from the collected supernatants and analyzed for assay using a UPLC/UV method. The analysis was performed using a Waters BEH C18 column (2.1 mm×50 mm, 1.7 μm) under gradient, reversed phase conditions with detection at 260 nm. The saturated solutions were quantitated by linear regression analysis against a 5-point calibration curve.
Testing using the same methodology was performed for EFdA, LNG, and ENG using various excipients.

[2] = In vitro release from PCL reservoir implants in PBS pH 7.4 at 37 °C (UV-Vis); type: physicochemical; conditions: for Daily RR: PCL 89 kDa
Experimental: The implants were incubated in 1×PBS (pH 7.4) at 37° C. Drug quantity released in media was measured via UV-Vis three times per week during which the implants were transferred to fresh buffer to maintain sink conditions. Drug concentrations were determined by correlating UV absorbance values to a standard curve. Standard curves involved measuring peak absorbance values as a function of drug concentrations diluted by half from bulk solutions. Peak absorbance values were determined by scanning the dilute drug solutions from 230 to 700 nm at a step size of 1 nm and assessing the maximum UV absorbance value.
Testing was performed to evaluate release kinetics of varying formulations of active agent and excipient. In particular, the release mechanism and release profiles for TAF formulated with varying mass quantities of castor oil from extruded PCL tubes was evaluated. Heat extruded PCL devices were fabricated (2.5 mm×40 mm) using 80 kDa Sigma grade PCL. […] For the in vitro release studies, devices were incubated in 40 mL of phosphate buffered saline (PBS) at pH 7.4 in a shaking incubator at 37° C. The implants were transferred to fresh buffer three times per week to maintain sink conditions.
Testing was performed to evaluate the in vitro release profile for an exemplary segmented device. In-vitro conditions included a simulated physiological media of a salt solution at pH between 6.5 and 7.5 at a temperature of 37° C. The exemplary device was engineered to release two APIs simultaneously, both at zero-order release kinetics. The device was fabricated with a segmented architecture that contained LNG formulated with ethyl oleate at a 1:4 ratio and EFdA formulated with castor oil at a 1:1 ratio and housed in separate compartments within a single implant design. Different segment lengths, polymer membrane thicknesses and polymer properties were tested.
In vitro release characterization involved incubation of the implants in 40 mL 1× phosphate buffered saline (PBS) (pH 7.4) at 37° C. and placed on an orbital shaker. […] The release buffer was sampled three times per week during which the devices were transferred to 40 mL of fresh buffer to maintain sink conditions. TAF quantity released in each PBS buffer during the time interval was calculated and cumulative mass of drug release as a function of time was determined.

[3] = Chromatographic purity (stability) of formulation inside implant after in-vitro exposure (UPLC/UV); type: physicochemical
[4] = In vivo study of one or two subcutaneous PC12 implants, 90 days (Example 20); parameters: species or system New Zealand white rabbits; conditions: hormone in subcutaneous implant
Experimental: In vivo analysis was performed with 20 naïve New Zealand white rabbits. […] In particular, female NZW rabbits each received two subcutaneous implants bilaterally inserted into the subscapular region: (1) one implant that contained an ARV drug and (2) one implant that contained a hormonal contraceptive drug. Both implants remained in the subcutaneous space for 90 days. Blood samples were taken at 0, 1, 3, 7, […], 45, 60, 75, and 90 days. After 90 days, the animals were euthanized, and the implants were retrieved. Tissues were collected and analyzed for levels of ARVs (TFV, TAF, and TFV-DP). As a comparator for the dual insertion modality, each female NZW rabbit in a separate group received a single implant, where each implant contained a single drug formulation: either ARV or hormone. The implant remained in the subcutaneous space for 90 days. Blood samples were taken at 0, 1, 3, 7, 15, 30, 45, 60, 75, and 90 days. After 90 days, the animals were euthanized, and the implants were retrieved. Tissues were collected and analyzed for levels of ARVs (TFV, TAF, and TFV-DP). The polymer was PC12.

[5] = Evaluation of Elvitegravir for use in the device
Experimental: Elvitegravir, which is marketed by Gilead, was also evaluated.

[6] = Naltrexone excipient screen, rapid solubility assay; type: physicochemical
Experimental: Heat extruded polycaprolactone (PCL) tubes were fabricated (2.5 mm×40 mm) using 80 kDa PCL to produce devices with 70 μm and 100 μm wall thicknesses. […] In vitro release studies involved incubation of devices in 40 mL of phosphate buffered saline (PBS), pH 7.4 in a shaking incubator at 37° C. Implants were transferred to fresh buffer three times per week to maintain sink conditions. The concentration of drugs released in media over time was measured via UV-vis spectroscopy. Solubility, stability, and purity of APIs in excipient were evaluated via HPLC.

[7] = Stability of Naltrexone base in excipients; type: physicochemical; conditions: stability results
[8] = segmented implant: ENG:sesame oil 2:1 (10 mm, 200 μm) + TAF base:castor oil 2:1 (40 mm, 70 μm)
[9] = segmented implant: ENG:sesame oil 2:1 (10 mm, 200 μm) + TAF base:sesame oil 2:1 (40 mm, 70 μm)

Compound: CC(Cn1cnc2c(N)ncnc21)OCP(=O)(O)OP(=O)(O)OP(=O)(O)O (stereo in doubt) [TFV-DP, tenofovir diphosphate]
- duration of sustained levels in PBMCs [1]: 83 days

Compound: C#C[C@]1(CO)O[C@@H](n2cnc3c(N)nc(F)nc32)C[C@@H]1O [EFdA]
- solubility at 72 h (physchem): 34.9 mg/mL (≈ 119 mM)
- release rate for the glycerol device ([2]; 70 μm wall, FIG. 11C study): 30 μg of EFdA/day
- release rate for the sesame oil device ([2]; 70 μm wall, FIG. 11C study): 8 μg of EFdA/day
- duration of sustained linear release ([2]; EFdA castor oil devices, 70 μm, medical grade PCL): 1 year
- exposure after which release deviated from zero-order ([2]; EFdA formulations other than castor oil): > 200 days
- duration of zero-order kinetics ([2]; EFdA segment of segmented implant): 1 year
- duration of sustained, zero order release ([2]; EFdA with varying excipients, 70 μm wall): over 60 days
- duration of sustained zero-order release ([2]; EFdA-castor oil devices, 80 KDa PCL, 70 μm wall): 200 days
- Release Rate (μg/day, 10 mm device) ([2]; EFdA:castor oil 1:1, 70 μm wall): 10 µg/day and 10.0 µg/day
- Release Rate (μg/day, 10 mm device) ([2]; EFdA:ethyl oleate 1:1, 70 μm wall): 13.0 µg/day
- Release Rate (μg/day, 10 mm device) ([2]; EFdA:glycerol 1:1, 70 μm wall): 15 µg/day and 15.0 µg/day
- Release Rate (μg/day, 10 mm device) ([2]; EFdA:propylene glycol 1:1, 70 μm wall): 11.0 µg/day
- Release Rate (μg/day, 10 mm device) ([2]; EFdA:sesame oil 1:1, 70 μm wall): 12.0 µg/day
- duration of sustained linear release ([2]; exemplary EFdA formulations, summary statement): over 1 year
- release profile / release rate ([2]; exemplary formulations/devices, summary statement): 5 to 30 µg/day
- duration of zero-order release ([2]; segmented implant LNG/EFdA): 6 months
- release rate of segment ([2]; segmented implant: LNG:ethyl oleate 1:4 and EFdA:castor oil 1:1, 70 μm wall, EFdA after burst of first 10 days): ~20 µg/day
- % Purity at Day-365 ([3]; EFdA with castor oil): 99.3%
- % Purity at Day-365 ([3]; EFdA with ethyl oleate): 99.4%
- % Purity at Day-365 ([3]; EFdA with glycerol): 99.5%
- % Purity at Day-365 ([3]; EFdA with propylene glycol): 99.5%
- % Purity at Day-365 ([3]; EFdA with sesame oil): 99.3%
- stability within an exemplary implant ([3]; after 1 year in in-vitro conditions): ~99%
- purity after 1 year of exposure to in-vitro conditions ([3]; all EFdA implants, Day-365): > 99%

Compound: C#C[C@]1(O)CC[C@H]2[C@@H]3CCC4=CC(=O)CC[C@@H]4[C@H]3C(=C)C[C@@]21CC [ENG, Etonogestrel]
- Release rate ([2]; 10 mm-long devices, 200 μm implants per b165 (second listing in Table 5)): ~30 µg/day
- start of deviation from linear release ([2]; ENG 1:4 and 1:1 drug to excipient ratios, depletion of drug): ~50 days
- duration of sustained release with zero-order kinetics ([2]; ENG 2:1 ratio with castor oil or sesame oil): approximately 300 days
- sustained period of release at about 30 μg/day ([2]; exemplary device, in vitro conditions): up to 180 days
- duration of linear release profile in vitro ([2]; exemplary formulations, summary statement): 230 days
- Daily RR [2, 8]: 26.2 ± 7.1 µg/day
- Daily RR [2, 9]: 26.3 ± 6.7 µg/day
- duration of zero-order release from segmented implants ([2]; segmented implants of TAF with LNG or ENG): 50 days
- % Purity at 180 Days ([3]; after 180-day in-vitro exposure, 200 μm implants per b165 (second listing in Table 5)): 99%
- stability within an exemplary implant ([3]; tested at 180 days in in-vitro conditions): > 99%
- stability in vivo for 90 days [4]: 99.5%

Compound: COc1cc2c(cc1Cc1cccc(Cl)c1F)c(=O)c(C(=O)O)cn2[C@H](CO)C(C)C [Elvitegravir]
- aqueous solubility [5]: low

Compound: Nc1nc(=O)n([C@@H]2CS[C@H](COP(=O)(O)OP(=O)(O)OP(=O)(O)O)O2)cc1F [FTC-TP, FTC-triphosphate]
- duration of sustained levels in PBMCs [1]: 28 days

Compound: C#C[C@]1(O)CC[C@H]2[C@@H]3CCC4=CC(=O)CC[C@@H]4[C@H]3CC[C@@]21CC [LNG, Levonorgestrel]
- stability within an exemplary implant ([3]; tested at 240 days in in-vitro conditions): greater than 92%
- stability in vivo for 90 days [4]: 99.2%±0.1

Compound: O=C1CC[C@@]2(O)[C@H]3Cc4ccc(O)c5c4[C@@]2(CCN3CC2CC2)[C@H]1O5 [Naltrexone Base, Naltrexone]
- Sum of impurities (% total area) ([6]; API alone, no excipient (reference line)): 2.50%
- Sum of impurities (% total area) ([6]; excipient screen, in PEG600): 2.10%
- Sum of impurities (% total area) ([6]; excipient screen, in castor oil): 4.50%
- Sum of impurities (% total area) ([6]; excipient screen, in ethyl oleate): 9.60%
- Sum of impurities (% total area) ([6]; excipient screen, in sesame oil): 3.20%
- Assay ([6]; in PEG600): 46.2 mg/mL
- Assay ([6]; in castor oil): 9.63 mg/mL
- Assay ([6]; in ethyl oleate): 2.79 mg/mL
- Assay ([6]; in sesame oil): 4.62 mg/mL
- Sum of impurities (% total area) ([7]; with PEG600): 5.10%
- Sum of impurities (% total area) ([7]; with castor oil): 5.20%
- Sum of impurities (% total area) ([7]; with ethyl oleate): 9.90%
- Sum of impurities (% total area) ([7]; with sesame oil): 6.40%

Compound: O=C1CC[C@@]2(O)[C@H]3Cc4ccc(O)c5c4[C@@]2(CCN3CC2CC2)[C@H]1O5 [Naltrexone Salt, Naltrexone hydrochloride]
- Sum of impurities (% total area) ([6]; API alone, no excipient (reference line), hydrochloride): 4.10%
- Assay ([6]; in PEG600, hydrochloride): <0.1 mg/mL
- Assay ([6]; in castor oil, hydrochloride): <0.1 mg/mL
- Assay ([6]; in ethyl oleate, hydrochloride): No measurable solubility
- Assay ([6]; in sesame oil, hydrochloride): No measurable solubility

Compound: CC(C)OC(=O)[C@H](C)N[P@](=O)(CO[C@H](C)Cn1cnc2c(N)ncnc21)Oc1ccccc1 [TAF base]
- Daily RR [2, 8]: 94.8 ± 17.6 µg/day
- Daily RR [2, 9]: 57.9 ± 8.6 µg/day
- Daily RR ([2]; segmented implant: LNG:sesame oil 2:1 (20 mm, 70 μm) + TAF base:castor oil 2:1 (30 mm, 70 μm)): 86.4 ± 10.3 µg/day
- Daily RR ([2]; segmented implant: LNG:sesame oil 2:1 (20 mm, 70 μm) + TAF base:sesame oil 2:1 (30 mm, 70 μm)): 47.7 ± 6.7 µg/day
